How the values were obtained:
Assay type in all cases: functional
Conditions in all cases: route subcutaneous
Rattus norvegicus [1] = assay: Anti-inflammatory activity in Rattus norvegicus albino (rat) assessed as reduction in carrageenan-induced paw volume at 5 mg/kg, sc pretreated 2 hr before carrageenan challenge measured after 1 hr by plethysmometer (reference value: 1.95 +/- 0.03 to 2 ml)
Rattus norvegicus [2] = assay: Anti-inflammatory activity in Rattus norvegicus albino (rat) assessed as reduction in carrageenan-induced paw volume at 5 mg/kg, sc pretreated 3 hr before carrageenan challenge measured after 1 hr by plethysmometer (reference value: 1.95 +/- 0.03 to 2 ml)
Rattus norvegicus [3] = assay: Anti-inflammatory activity in Rattus norvegicus albino (rat) assessed as reduction in carrageenan-induced paw volume at 5 mg/kg, sc pretreated 1 hr before carrageenan challenge measured after 1 hr by plethysmometer (reference value: 1.95 +/- 0.03 to 2 ml)
Rattus norvegicus [4] = assay: Anti-inflammatory activity in Rattus norvegicus albino (rat) assessed as reduction in carrageenan-induced paw volume at 5 mg/kg, sc pretreated 4 hr before carrageenan challenge measured after 1 hr by plethysmometer (reference value: 1.95 +/- 0.03 to 2 ml)

With `O=c1ccc(-c2nc3ccccc3nc2-c2ccccc2)n[nH]1` the Activity (Rattus norvegicus [1]) was 1.37 mL, the Activity (Rattus norvegicus [2]) was 1 mL and the Activity (Rattus norvegicus [3]) was 1.97 mL. It also gave an Activity (Rattus norvegicus [4]) of 0.38 mL.
For `O=c1ccc(-c2nc3ccccc3nc2-c2ccc(Cl)cc2)n[nH]1`, the Activity (Rattus norvegicus [1]) was 0.95 mL, the Activity (Rattus norvegicus [2]) was 0.55 mL and the Activity (Rattus norvegicus [3]) was 1.48 mL. It also gave an Activity (Rattus norvegicus [4]) of 0.03 mL.
`COc1ccc(-c2nc3ccccc3nc2-c2ccc(=O)[nH]n2)cc1` was tested, and the Activity (Rattus norvegicus [1]) was 1.5 mL, the Activity (Rattus norvegicus [2]) was 1.38 mL and the Activity (Rattus norvegicus [3]) was 1.55 mL. For the same molecule, the Activity (Rattus norvegicus [4]) was 1.27 mL.
Work on `O=c1ccc(C2Nc3ccccc3NC2c2ccccc2)n[nH]1` (stereo not drawn) yielded an Activity (Rattus norvegicus [1]) of 2.02 mL, an Activity (Rattus norvegicus [2]) of 2 mL and an Activity (Rattus norvegicus [3]) of 2 mL. For the same molecule, the Activity (Rattus norvegicus [4]) was 2.07 mL.
Molecule `O=c1ccc(C2Nc3ccccc3NC2c2ccc(Cl)cc2)n[nH]1` (stereo not drawn) has an Activity (Rattus norvegicus [1]) of 1.93 mL, an Activity (Rattus norvegicus [2]) of 2 mL and an Activity (Rattus norvegicus [3]) of 1.93 mL. It also gave an Activity (Rattus norvegicus [4]) of 2.12 mL.
Work on `COc1ccc(C2Nc3ccccc3NC2c2ccc(=O)[nH]n2)cc1` (stereo not drawn) yielded an Activity (Rattus norvegicus [1]) of 1.42 mL, an Activity (Rattus norvegicus [2]) of 1.38 mL and an Activity (Rattus norvegicus [3]) of 1.58 mL. For the same molecule, the Activity (Rattus norvegicus [4]) was 1.32 mL.
In the case of `O=C(O)Cc1ccccc1Nc1c(Cl)cccc1Cl` [DICLOFENAC], the Activity (Rattus norvegicus [1]) is reported as 0.57 mL, the Activity (Rattus norvegicus [2]) is reported as 0.3 mL and the Activity (Rattus norvegicus [3]) is reported as 0.92 mL. For the same molecule, the Activity (Rattus norvegicus [4]) was 0.03 mL.

Source: ChEMBL document CHEMBL3044725, “Structure-based molecular design, synthesis, and in vivo anti-inflammatory activity of pyridazinone derivatives as nonclassic COX-2 inhibitors” (2010)
